From patent publication US20250073355A1, “CD44-BINDING PEPTIDE REAGENTS AND METHODS” (THE REGENTS OF THE UNIVERSITY OF MICHIGAN, priority 2021, published 2025)

Columns and labels:
[1] = system: orthotopic human HCC xenograft tumors; assay: Intraoperative laparoscopic imaging of orthotopic human HCC xenograft tumors; assay type: in vivo; details: […] post-injection, n=8 mice
Procedure: A self-build imaging module was attached to standard surgical laparoscope (#49003 AA, HOPKINS II Straight Forward Telescope 0°, Karl Storz, El Segundo, CA, USA) to collect WL and NIR FL images. WL illumination (MCWHL5, Thorlabs, Newton, NJ, USA) and FL excitation source (λex=785 nm, #iBEAM-SMART-785-S, Toptica Photonics) were coupled into the laparoscope. WL and NIR FL images are collected, simultaneously, by a color CCD camera (#GX-FW-28S5C-C, Point Grey Research, Richmond, BC V6W 1 K7, Canada) and a NIR CCD camera (Orca R-2, Hamamatsu Photonics, Hamamatsu City, Shizuoka Pref., Japan) with a laser power of 1.2 mW, respectively.
After completion of imaging, the mice were euthanized, and the livers were resected. A human specific anti-cytokeratin was stained on tumor sections by IHC to further confirm the implanted human derived HCC tumors, FIG. 16H. Overexpression of CD44 was confirmed by IHC and IF, FIG. 161,J. Representative histology (H&E) of the tumor is shown, FIG. 16K.

[2] = system: orthotopic human HCC xenograft tumors (SK-Hep1); assay: Photoacoustic imaging of orthotopic human HCC xenograft tumors
Procedure: (§1) Human HCC xenograft tumors were implanted orthotopically in female nude athymic mice. First, ˜5×10^6 SK-Hep1 tumor cells were injected subcutaneously into the hind limb flank. Tumors were then monitored twice a week and allowed to grow to 1-2 cm in diameter for 10-30 days. A small horizontal incision was made below the sternum to expose the liver. The liver was incised with a sharp scalpel horizontally in parallel with the surface of the exposed liver. A piece of the subcutaneous tumor with dimensions of ˜1×1×1 mm^3 was implanted into the incision, and then the site was sealed with absorbable hemostatic material (surgical, Johnson & Johnson). The liver was returned to its original position after confirming hemostasis.
IRDye800-labeled target and control peptides (300 μM in 200 μL PBS) were intravenously injected in mice bearing orthotopical SK-Hep1 tumors. An unlabeled peptide (1.5 mM, 100 μL) was injected 30 min prior to the labeled peptide to compete for binding. ICG (2.46 mg/kg) was injected intravenously as a control. Three-dimensional (3D) images were acquired from 0 to 48 h post injection and reconstructed using PAI tomography system (Nexus 128, Endra) using Iex=774 nm excitation. The photoacoustic signal intensity was measured from the two-dimensional (2D) maximum intensity projection (MIP) images, and the pre-injection images were used for background.
The photoacoustic images were collected to evaluate the time course for peptide uptake, FIG. 14A. […] Indocyanine green (ICG) was also administered (2.46 mg/kg) for comparison.

[3] = system: orthotopic SK-Hep1 xenograft tumors; assay: Whole body fluorescence imaging of orthotopic human HCC xenograft tumors; details: peak uptake ([…]), intravenous, n=5 mice
Procedure: as §1

time of peak intensity (uptake) in tumor, photoacoustic ([2]; female, nude athymic, mouse, in vivo, iv): > 24 h
Structure (SMILES): CC1(C)C(/C=C/C=C/C=C/C=C2\N(CCCCS(=O)(=O)O)c3ccc4ccccc4c3C2(C)C)=[N+](CCCCS(=O)(=O)[O-])c2ccc3ccccc3c21 [ICG, Indocyanine green]
T/B ratio, laparoscopic fluorescence imaging (mean±SD) [1]: 0.87±0.2
T/B ratio, photoacoustic imaging (mean±SD) ([2]; […] post-injection, intravenous, n=5 mice): 1.39±0.13
T/B ratio, whole body fluorescence imaging (mean±SD) [3]: 0.46±0.03
